Assay results from patent publication US5550124A, “Use of peripheral-type benzodiazpine sites for treatment of CNS trauma or disease” (priority 1991, dated 1996).
“Also recorded” adds a separate entry of the source. Where two headings read alike, the source gives them in different places.

Key:
[1] = target: T1, peripheral-type BZ receptors (Rattus norvegicus, UniProt P16257); settings: # data from Wang et al., Mol. Pharmacol. 25:349-351 (1984); cited from earlier work
T1 construct: displacement of ^3 H-RO5-4864 in brain homogenates; from tissue; host or cells: brain homogenates

[2] = Physical trauma (head injury) model, grip score 18 hours post-injury; format: in vivo, mice (male CF-1); settings: by extrapolation from Table 3 binding data
[3] = stroke treatment; cited from earlier work
platelet aggregation = settings: cited from earlier work
[4] = in vivo; cited from earlier work
NMDA receptor [5] = settings: cats; cited from earlier work
[6] = target: T1, peripheral-type BZ receptors; test: Competitive binding assay, displacement of 3H-Ro5-4864 in brain homogenates
From the text: Sprengel, R., et al., "Molecular cloning and expression of cDNA encoding a peripheral-type benzodiazepine receptor," J. Biol. Chem., 264:20415-20421 (1989).
Some of these compounds were further tested in in vivo studies.

[7] = Physical trauma (head injury) model, grip score 18 hours post-injury; format: in vivo, mice (male CF-1); settings: for effectiveness in treatment of CNS trauma/damage (in words): grip score 18 h post trauma, FIGS. 1-8
From the text: Two tests which can be readily performed are observation of grip score and observation of grip time in injured test animals. Another test for agonist activity is for decrease in mortality caused by the CNS injury. Mice can be treated to simulate CNS injury by a variety of methods: they can be deprived of oxygen by administration of KCN (Nauquier, A., et al., Arch. Int. Pharmacodyn., 249:330 (1981)) or by temporary tying-off of the carotid artery (Braughler, J. M. and Lainer, M. J., "The effects of large doses of methylprednisolone on neurologic recovery and survival in the Mongolian gerbil following three hours of unilateral carotid occlusion," CNS Trauma, 3:153-162 (1986)). Alternatively, blows can be administered to the head or the spinal cord of the test animal.
The following protocol was used:
The compound to be tested was weighed and suspended in a polyethylated castor oil solution ("Cremophore") (21% Cremaphore, 3% ethanol in 0.9% saline). The concentration of the solution was then adjusted for administration at a dose of 0.01 cc/gm body weight. For example, for a dose of 10 mg/Kg, the solution was made 1.0 mg/cc, and a 23 g mouse would receive 0.23 cc of this solution. The solution was sonicated for approximately 90 minutes, or until the compound is dissolved.
Male CF-1 mice (15-25 gm) were weighed and marked for identification purposes. Each individual mouse was restrained by grasping the dorsal skin of the neck until the mouse was still. An impounder was used to administer the trauma. The impounder consists of a weight suspended over the animal's head at a height sufficient to produce significant injury when dropped, and a means for immobilizing the animal (in this case, room to hold the animal in place). […] 62:882-887, 883. The mouse was positioned properly under the impounder, and the weight was released from its preset height (11 CM).
Immediately following injury, the mouse was placed under a heat lamp. At various times after injury, the drug was administered intravenously at the specified dose. The time of injury and the time of injection were recorded.
B) Measurement of Grip Score
Each mouse was evaluated 18 hours post-injury for neurological deficit. The delay of 18 hours provided time for any sedative effects of the compound to wear off. It also provided time for healing to occur. Mortality was also noted. A standard grip test, as described in Hall et al., J. Neurosurg. 68:456-461 (1988), was used. The apparatus consisted of a taut string suspended between two uprights, 60 cm in length and 40 cm above a padded table.
(§1) Each mouse was picked up by the tail and placed on the string. […] The tail was then released. Grip score was recorded based on the mouse's performance while on the string. The following criteria were used (taken from Hall, E. D., J. Neurosurg. 62:882-887 (1985)):
C) Statistical Analysis Results of the above test were analyzed for statistical significance using the Mann-Whitney U test. See R. V. Tallarida & R. B. Murray, MANUAL OF PHARMACOLOGIC CALCULATIONS WITH COMPUTER PROGRAMS, Springer-Verlag, N.Y., pp. 57-59 (1981). This test was used to compare each set of grip scores for a particular dose of a particular compound against the grip scores for the control group.

[8] = tested on: peripheral-type BZ receptor; test: Antagonism of Ro5 4864-induced improvement of grip score by PK 14105 following head injury; format: in vivo, mice; settings: for GRIP TEST SCORE: tested 1 hour after injury
From the text: Male CF-1 mice (15-25 gm) were weighed and marked for identification purposes. Each individual mouse was restrained by grasping the dorsal skin of the neck until the mouse was still. An impounder was used to administer the trauma. The impounder consists of a weight suspended over the animal's head at a height sufficient to produce significant injury when dropped, and a means for immobilizing the animal (in this case, room to hold the animal in place). An example of such an impounder can be found in Hall, E.D., "High Dose Glucocorticoid Treatment Improves Neurological Recovery in Head Injured Mice," J. Neurosurg. 62:882-887, 883. The mouse was positioned properly under the impounder, and the weight was released from its preset height (11 CM).
as §1
The inhibitory agonist alone does (row 2 as compared to row 1).
^a Animals were administered vehicle or PK 14105 i.v. 30 min prior to
^b Animals were administered vehicle or Ro5 4864 i.v. 5 min after hea
^c Animals were tested 1 hour after headinjury

NMDA receptor [9] = settings: in vivo; cited from earlier work

In the case of `CN1C(=O)CN=C(c2ccc(Cl)cc2Cl)c2cc(Cl)ccc21` [Ro5-6900, 2',4',7-Trichloro-1,3-dihydro-1-methyl-5-phenyl-2H-1,4-benzodiazepin-2-one], the IC50 [1] is given as 0.01 µM and the “effectiveness for treatment of CNS trauma or disease (in words)” value (from here on “effectiveness for treatment”) [2] is given as “effective”.

In the case of `C[C@]12CCC(=O)C=C1CC[C@@H]1[C@@H]2C(=O)C[C@@]2(C)[C@H]1CC[C@]2(O)C(=O)CO` [cortisone], the “effect on neurologic outcome, morbidity or mortality in stroke” value [3] is listed as “no difference in morbidity or mortality”.

For `Clc1ccccc1CN1CCc2sccc2C1` [ticlopidine], the “effect on platelet aggregation” value (platelet aggregation) is listed as “inhibit platelet aggregation”.

For `C[C@@H]1C[C@H]2[C@@H]3CCC4=CC(=O)C=C[C@]4(C)[C@@]3(F)[C@@H](O)C[C@]2(C)[C@@]1(O)C(=O)CO` [dexamethasone], the “effect on neurologic outcome, morbidity or mortality in stroke” value [3] is given as “no difference in morbidity or mortality” and the adverse effects [4] is given as “serious exacerbations of diabetes mellitus”.

For `CN1C(=O)CN=C(c2ccccc2Cl)c2ccccc21` [Ro5-4608, 2'-Chloro-1,3-dihydro-1-methyl-5-phenyl-2H-1,4-benzodiazepin-2-one], the IC50 [1] is given as 0.215 µM.

For `O=C(O)[C@H]1CN(C/C=C/P(=O)(O)O)CCN1` [D-CPPene], the “effect on blood pressure” value (NMDA receptor [5]) is given as “induces hypotension”.

For `CN1C(=O)CN=C(c2ccccc2Cl)c2cc(Cl)ccc21` [Ro5-3448, 2',7-Dichloro-1,3-dihydro-1-methyl-5-phenyl-2H-1,4-benzodiazepin-2-one], the IC50 [1] is listed as 0.0352 µM and the “effectiveness for treatment” value [2] is listed as “effective”.

In the case of `CN1C(=O)CN=C(c2ccc(Cl)cc2)c2ccccc21` [Ro5-5115, 4'-Chloro-1,3-dihydro-1-methyl-5-phenyl-2H-1,4-benzodiazepin-2-one], the IC50 [1] is listed as 0.106 µM.

For `C=CCN1C(=O)CN=C(c2ccc(Cl)cc2)c2cc(Cl)ccc21` [Ro5-6945, 1-Allyl-4',7-dichloro-1,3-dihydro-5-phenyl-2H-1,4-benzodiazepin-2-one], the IC50 [1] is given as 0.0143 µM and the “effectiveness for treatment” value [2] is given as “effective”.

For `CN1C(=O)CN=C(c2ccccc2)c2ccccc21` [Ro5-3464, 1,3-Dihydro-1-methyl-5-phenyl-2H-1,4-benzodiazepin-2-one], the IC50 [6] was 1.23 µM, the “binding affinity to peripheral-type BZ sites (in words)” value [6] was “very high IC50 values” and the “effectiveness in treatment of CNS trauma/damage (in words)” value [7] was “non-effective; also recorded: inactive in the treatment of CNS damage”.

In the case of `COc1ccc(C2=NCC(=O)N(C)c3ccc(Cl)cc32)cc1` [Ro5-6669, 7-Chloro-1,3-dihydro-4'-methoxy-1-methyl-5-phenyl-2H-1,4-benzodiazepin-2-one], the IC50 [1] is listed as 0.0187 µM and the “effectiveness for treatment” value [2] is listed as “effective”.

In the case of `CN1C(=O)CN=C(c2ccc(Cl)cc2)c2cc(F)ccc21` [Ro5-6531, 4'-Chloro-7-fluoro-1,3-dihydro-1-methyl-5-phenyl-2H-1,4-benzodiazepin-2-one], the IC50 ([6]; displacement of 3H-Ro5-4864 in brain homogenates, * data by procedure described herein) is reported as 0.0334 µM and the “effectiveness in treatment of CNS trauma/damage (in words)” value [7] is reported as “effective”.

In the case of `CN1C(=O)CN=C(c2c(Cl)cccc2Cl)c2cc(Cl)ccc21` [Ro7-5520, 2',6',7-Trichloro-1,3-dihydro-1-methyl-5-phenyl-2H-1,4-benzodiazepin-2-one], the IC50 [1] is given as 0.0931 µM.

In the case of heparin, the adverse effects [4] is listed as “high risk of brain and/or systemic hemorrhage”.

For `CC(=O)Oc1ccccc1C(=O)O` [Aspirin], the “effect on platelet aggregation” value (platelet aggregation) is given as “inhibit platelet aggregation”.

With `O=C1CN=C(c2ccccc2Cl)c2cc([N+](=O)[O-])ccc2N1` [Clonazepam] the IC50 [6] was 9.18 µM and the “effectiveness in treatment of CNS trauma/damage (in words)” value [7] was “inactive in the treatment of CNS damage”.

For `CCC(C)N(C)C(=O)c1cc2ccccc2c(-c2cc([N+](=O)[O-])ccc2F)n1` (centres unmarked) [PK 14105, 1-(2-fluoro-5-nitrophenyl)-1-methyl-N(1-methyl-propyl)-3-isoquinoline carboxamide], the “binding affinity to peripheral-type BZ sites (in words)” value [6] was “very strong binding affinity”, the IC50 ([6]; displacement of 3H-Ro5-4864 in brain homogenates, * data by procedure described herein, read-out: IC50) was 0.0045 µM and the “effectiveness in treatment of CNS trauma/damage (in words)” value [7] was “inactive in treating CNS damage”. For the same compound, the “functional class at the peripheral-type BZ receptor (in words)” value ([7]; inferred from binding and lack of grip score effect) was “antagonist to the peripheral-type BZ receptor”, the “grip scores compared with controls (in words)” value ([7]; moderate and high doses, FIG. 8) was “stay the same as those of the controls” and the “GRIP TEST SCORE” value ([8]; 10 mg/kg i.v. 30 min preinjury, postinjury vehicle) was 1.40 ± 0.28. For the same compound, the “effect of the antagonist on grip score (in words)” value ([8]; antagonist alone) was “no statistically significant effect on grip score post trauma” and the “effect on agonist-induced improvement of grip score (in words)” value ([8]; antagonist with inhibitory agonist, 1 hour post-trauma) was “prevents the agonist from improving grip score”.

With `CC(C)(C)OC(=O)c1ncn2c1[C@@H]1CCCN1C(=O)c1c(Br)cccc1-2` [Rol6-6028] the IC50 [6] was greater than 10 µM and the “effectiveness in treatment of CNS trauma/damage (in words)” value [7] was “inactive in the treatment of CNS damage”.

For `CN1C(=O)CN=C(c2ccc(Cl)cc2)c2cc(F)ccc21` [Ro5-6524, 4'-Chloro-7-fluoro-1,3-dihydro-1-methyl-5-phenyl-2H-1,4-benzodiazepin-2-one], the IC50 [1] is given as 0.34 µM.

For `CCN1C(=O)CN=C(c2ccc(Cl)cc2)c2cc(Cl)ccc21` [Ro5-6993, 4',7-Dichloro-1-ethyl-1,3-dihydro-5-phenyl-2H-1,4-benzodiazepin-2-one], the IC50 [1] is given as 0.0061 µM and the “effectiveness for treatment” value [2] is given as “effective”.

In the case of `O=C1C(CC[S+]([O-])c2ccccc2)C(=O)N(c2ccccc2)N1c1ccccc1` (centres unmarked) [sulfinpyrazone], the “effect on platelet aggregation” value (platelet aggregation) is listed as “inhibit platelet aggregation”.

In the case of `OC[C@@H](O)[C@@H](O)[C@H](O)[C@H](O)CO` [mannitol], the adverse effects [4] is listed as “severe rebound cerebral edema”.

For `O=C(O)C1CN(CCCP(=O)(O)O)CCN1` (centres unmarked) [CPP], the adverse reactions (NMDA receptor [9]) is listed as “respiratory depression and elevated CO2 level”.

For `CN1C(=O)CN=C(c2ccc(Cl)cc2)c2cc(Cl)ccc21` [Ro5-4864, 4',7-Dichloro-1,3-dihydro-1-methyl-5-phenyl-2H-1,4-benzodiazepin-2-one], the “effectiveness in treatment of CNS trauma/damage (in words)” value [7] was “effective”, the “GRIP TEST SCORE” value ([8]; preinjury 10 mg/kg PK 14104 (sic) plus postinjury 0.3 mg/kg Ro5 4864) was 0.93 ± 0.21 and the “GRIP TEST SCORE” value ([8]; preinjury vehicle, 0.3 mg/kg i.v. 5 min after injury, vehicle/vehicle 1.13 ± 0.27, P<0.05) was 1.84 ± 0.24.

In the case of `CN1C(=O)CN=C(c2ccc(F)cc2)c2ccccc21` [Ro5-5122, 4'-Fluoro-1,3-dihydro-1-methyl-5-phenyl-2H-1,4-benzodiazepin-2-one], the IC50 [1] is listed as 0.442 µM.

In the case of `CN1C(=O)CN=C(c2ccc(Cl)cc2Cl)c2cc(Cl)ccc21` [Ro5-6902, 4',6',7-Trichloro-1,3-dihydro-1-methyl-5-phenyl-2H-1,4-benzodiazepin-2-one], the IC50 [1] is listed as 0.0234 µM and the “effectiveness for treatment” value [2] is listed as “effective”.
